Molecules are shown by their SMILES. Where two headings read alike, the source gives them in different places.

This is an account of results in patent publication US4444776A, “Dipyrido (4,3-B) (3,4-F) indoles, process for obtaining them, therapeutical use and pharmaceutical compositions” (priority 1977, dated 1984).

The subject of series [1] is tumoral strain derived from the murine leukemia due to the C. FRIEND virus. The series is described as follows: Test 7: antitumoral activity in vitro on Friend leukemia tumoral strain. Format: cell-based. The following applies: HUM = 1. The protocol:
Test 7: Study of the antitumoral activity in vitro
This activity was measured on a tumoral strain derived from the murine leukemia due to the C. FRIEND virus.
The tumoral cells multiply in suspension in a "RPMI 1640" medium (Catalogue of GIBCO Bio-cult. Ltd. Washington Road, Sandyford Industrial Estate, PAISLEY PA 3 4EP, Renfrewshire, Scotland) supplemented with 20% of embryonary calf serum, penicillin and streptomycine. The duplication time of these cells is 11 hours. The growth fraction is equal to 1 or very close to 1 (all the cells are in the cycle). The cultures are sub-culturedat time t=0 at the concentration of 2.10^5 cells per ml in Falcon dishes containing 4 ml of medium. After twenty four hours, the product to be tested was added, i.e. at a moment when the cultures are in exponential phase of growth. Twenty four hours after the addition of the product, the cells are counted and the percentage of living cells determined by an exclusion test using "trypan" blue.

For the next series, the system named is L1210 leukemia. In words: Test 16: structure-activity of R'1 substitution, L1210 (Table XII). Format: in vivo, mouse (C57B16xDBA/2)F1. On the set-up: MST: unit not given here. The protocol: Test 16: Relationship between structure and activity of various dipyrido indoles differing by the R'1 substitution.
L1210 leukemia has been maintained by weekly passages on (C57B16xDBA/2)F1 mice. On day 0, mice were inoculated by I.P. route with various numbers of L1210 ascitic tumor cells in volumes of 0.1 ml. Subsequently as indicated, drugs were administrated in Ca^++ and Mg^++ free PBS solutions (Gibco) or in Mac Coy's medium (Gibso or Microbiological Associates). […]

The test system of a further series is L 1210 leukemia. The series is described as follows: Test 1: antitumoral properties on L 1210 leukemia (Table I). In kind it is in vivo, mouse. The following applies: for ILS % / Number of cells found / Number of cells killed / Surviving mice: 0.1 mg/mouse (5 mg/kg), J+1. The protocol:
The lower animal antitumoral properties of the compounds according to the invention have been determined by their curative action on inoculated test L-1210 leukemia. [ZUBROD C. G., Proc. Nat. Acad. Sci. 1972, 69, 1042-1047 and SCHEPARTZ SA. SCREENING, 1971, CANCER Chemother. Rep. Part 3 vol.2 p.3].
This leukemia is maintained in ascitic form by passage (i.p. route) on CBDl (C57 B16×DBA/2)F1 mice. The preparation to be tested are injected by the intraperitoneal route at least one day after the inoculation of the cells (one injection only). The results are expressed in increased life span per cent (ILS %) according to KESSEL et al. Cancer Res. 1971, 31, 1883-1887) or in percentage of the number of cells killed by the product (the survival of the animals is proportional to the number of cells injected).
The following tests were made in groups of 10 mice, unless stipulated to the contrary.
Test 1: Study of the antitumoral properties of the compounds of the invention on L 1210 leukemia
The lower animal antitumoral properties of the compounds according to the invention were determined by their curative action on test inoculated L 1210 leukemia.
This leukemia was maintained on CBD 1 (C 57 B 16×DBA/2) F1 mice. The compounds to be tested were injected by the IP route one or more days after the inoculation of the cells (single injection). The results obtained, shown in table I hereinafter, are expressed in percentage of increase of life span (ILS %) and in percentage of the number of cells killed by the compound to be tested, the survival of the animals being proportional to the number of cells injected.
The percentage of the like span ILS % (Cancer. Res. 1971, 31, 1883-1887) is the following ratio: [formula] S^t =survival of the treated animals S^c =survival of the control animals

For series [2], the system named is Moloney virus / viro-induced Moloney sarcoma. The series is described as follows: Test 3: development of the viro-induced Moloney sarcoma. Format: in vivo, new-born mice. The following applies: J+1. From the text: The study of the development of the MOLONEY viro-induced sarcoma (Nat. Cancer. Inst. Monograph 22, 139-142, 1966) has also made it possible to determine that the compounds according to the invention are antiviral and antitumoral agents in lower animals.
Test 3: Study of the development of the viro-induced Moloney sarcoma
The injection of Moloney virus [C. Jasmin et al. J. Nat. Cander Inst. 1974 53 469-474] by the intramuscular i.m. route into new-born mice led after 10 days to the formation of a sarcoma. The appearance of the tumour was proportional to the dose of virus injected. The viral inoculum was constituted by a tumor homogenate diluted to 1/250, this corresponding to 10 TID 50, i.e. to the dose of virus inducing the appearance of a tumour in 50% of the animals infected. At this dose, 80 to 100% of the animals developed a tumour, and 100% of the survivors became leukemic. The experiment thus consisted in noting the number of mice presenting tumours, the regression, or not, of these tumours and finally in sacrificing the surviving animals after 2 months and in noting the presence or absence of splenomegaly (evidence of a leukemia). The virus was inoculated into new-born mice of 3 to 5 days by the IM route, and the mice received the following day (J+1) or five hours after injection (JO+5 hours) the product to be tested by the IP route.

The nature of series [3]: Test 4: toxicity on new-born mice, IP. The following applies: mouse, in vivo, read-out: dead mice (converted). Format: in vivo, mouse. From the text: (§1) Test 4: Investigation of the toxicity
(§2) The toxic dose has been sought, on adult ([…]×DBA/2) Fl mice and on new-born mice, of the compounds of the invention by injection by the IP route. The results obtained are given hereinafter:
(§3) 2-On new-born mice (IP route)

The test system of another series is new-born mice. The series is described as follows: Test 4: toxicity on new-born mice, IP. In kind it is in vivo, mouse.
Text: as §1, §2, §3

The mark [4] stands for this setting: 10^4 cells, 5 mg/kg, day +1, control MST 11.8.

For the molecule `Cc1c2cc[n+](C)cc2c(C)c2c1[nH]c1cc[n+](C)cc12` [Example 2, 2,5,9,11-tetramethyl dipyrido [4,3-b][3,4-f] indolinium diacetate], in series [1], the “Activity (ratio of the LD50 of HUM to the LD50 of the product tested)” value was determined as 0.2. Also, in the series on L1210 leukemia (10^4 cells, 20 mg/kg, day +4), the 60 days surv. stood at 0, the ILS % worked out at 0.9%, the MST worked out at 11.3 and the Range of death was 10-17.

`Cc1c2ccnc(Cl)c2cc2c1[nH]c1ccncc12` [Example 6, 1-chloro-5-methyl-dipyrido [4,3-b][3,4-f] indole]: the “toxicity in L 1210 test” value with L 1210 leukemia (0,1 mg/mouse) is on record as “toxic”. In addition, the “ILS % (difference with the controls)” value in the series with L 1210 leukemia (0,1 mg/mouse, 10^4 and 10^3 cells) is recorded as “no difference”. In series [1], the “Activity (ratio of the LD50 of HUM to the LD50 of the product tested)” value worked out at 0.3.

As for `Cc1c2cc[n+](C)cc2c(C)c2c1[nH]c1ccc(O)cc12` [HUM, 2N--methyl-9-hydroxy-ellipticinium acetate, reference compound], in the series with L 1210 leukemia (10^3 cells), the ILS % came out at 22.15%, the “Number of cells found” value turned out to be 60, the “Number of cells killed” value came to 94% and the Surviving mice is recorded as 3/10. Also, in the series on L 1210 leukemia (10^4 cells, IP), the ILS % is given as 22.6%. Moreover, in the series on L 1210 leukemia (10^4 cells), the “Number of cells found” value is 400, the “Number of cells killed” value is 96% and the Surviving mice was 1/10. Moreover, in series [2] (1 μg/mouse (0.5 mg/kg)), the animals survived is on record as 90%, the mice presenting tumours is given as 30%, the mice with leukemia was determined as 33% and the tumours regressed stood at 90%. Besides, in series [2] (5 μg/mouse (2.5 mg/kg)), the “animals presenting a tumour” value is 20%, the mice leukemic came out at 10% and the tumour regression was determined as 100%. For the same molecule, the mortality in series [3] (5 μg: 2.5 mg/kg) is 37.5%. The mortality in series [3] (10 μg: 5 mg/kg) is 37.5%. Moreover, the appearance of mice entry with new-born mice (5 μg: 2.5 mg/kg) is reported as “mice puny in appearance”. In addition, the appearance of mice entry with new-born mice (10 μg: 5 mg/kg) is on record as “mice puny in appearance”. In the series on L1210 leukemia (10^3 cells, 5 mg/kg, day +1), the 60 days surv. worked out at 3, the ILS % is 22.15%, the MST turned out to be 16.86 and the Range of death was 14-20. In the series on L1210 leukemia (setting [4]), the ILS % turned out to be 22.6%, the MST came out at 14.9 and the Range of death is listed as 14-20.
